Columns and labels:
[1] = tested on: pig vesicourethral junction sphincter muscle; assay: Functional assay: dose response on isolated pig vesicourethral junction sphincter muscle strips; type: cell-based; settings: for EC50: Sus scrofa, contraction, from dose response curve, read-out: relative potencies (EC50); for contractile response of muscle strip (representative traces): compound alone, FIG. 1; for maximum response: mean ±SEM
Source text: Samples of female white landrace pig bladder and urethra were obtained from freshly slaughtered pigs at the local abattoir. The pigs were killed by exsanguination after initial stunning by electric shock. The anus, rectum, bladder and urethra were then excised en bloc during evisceration and immediately transferred into pre oxygenated Krebs' solution (1 mmol/l: NaCl 120, KCl 5.9 NaHCO3 15.4, CaCl2 2.5, MgCl2 1.2, glucose 11.5) and transported to the laboratory, where they were stored in the refrigerator (at 4° C.) until ready to be processed.
The location of the vesicourethral junction sphincter was then identified. The bladders were inflated via a transurethral catheter with 200 ml. fluid. The fluid was then gently squeeze towards the outlet, until a sharp narrowing of the bladder base becomes apparent (Dass, 1997; Dass et al., 2001). Tissue sections from this region were then denuded of urothelium, and dissected transversely into a number of muscle strips.
Muscle strips measuring about 5-6 mm by 2-3 mm with an average weight of 7 mg were dissected, fine (5/0) silk threads were tied at each end of the strips and each strip mounted vertically in a 0.2 ml capacity, perspex organ bath between two recessed platinum electrodes through which electrical field stimulation (EFS) could be delivered. Strips were constantly superfused with Krebs' solution (37° C.) at a rate of 1.5 ml 1 min. The Krebs' solutions were gassed with 97% oxygen 3% carbon dioxide. Drugs were delivered by substituting drug containing solutions of the desired concentration for Krebs' solutions.
The apparatus comprised of six organ baths in parallel allowing the study of six strips simultaneously as described by Brading and Sibley (1983). Each channel was calibrated with a 1 g weight attached to the transducer before each experiment, and tissues were tensioned to 1 g after mounting. Isomeric tension generated by the strips was measured using isomeric force displacement transducers, Pioden Dynamometer UFI transducers (Pioden Controls Ltd, Canterbury, Kent) or AD Instruments MLT050/D force transducers, amplified (Harvard Transducer/Amplifier, Harvard Apparatus Ltd, Edenbridge, Kent) and analyzed using MacLab Data Acquisition system (AD Instruments, Sydney, Australia) or AD Instruments OCTAL Bridge Amplifier connected to Power Lab/8SP (AD Instruments, Sydney, Australia) and Chart v3.6 software (Macintosh) or Chart v5 (PC).
Dose response curves for the various compounds were constructed by testing one drug on a pair of strip in each experiment. The preparations were subjected to a sequence of successive 10 s […] applications of increasing doses of drugs with intervening washout periods.
1R,2S-methoxamine hydrochloride, the compound of formula (Ia) and the compound of formula (III) were made available by Norgine International Research, Middlesex.
Responses were reported as either grams of tension or % maximum force and given as mean values ±SEM. EC50 values were used as a measure of potency. The EC50 values were measured from the graph of dose response curve using the kaleidograph graphical software applications. Results were assessed using statistical analysis software, StatView 5.0 (SAS Institute Inc.) using ANOVA followed by Fisher's test. Significant difference between data was assumed with p<0.05.

[2] = tested on: vesicourethral junction sphincter muscle strips; assay: Enzyme assay: regeneration of 1R,2S-methoxamine from compound (Ia) by gamma glutamyl transferase, reaction product tested on muscle strips; type: cell-based, pig; settings: 0.3 mM
Protocol: Regeneration of 1R,2S-methoxamine from the Compound of Formula (Ia)
Into a clean glass vial (1 ml volume) the following reaction mixtures were pipetted as follows:
200 μl compound of formula (Ia), 10 mg/ml in Tris buffer (mol. wt. 376, therefore=2 mg compound of formula (Ia)=5.3 μMoles), 100 μl solution E
Reaction product of groups 1, 2 and 3 were only tested for biological activity after 30 minutes of incubation period at 37° C. while that of group 4 were also tested after, 10, 30 and 60 minutes of incubation period. A 5 h group of which reaction mixture indicated in group four were diluted by two fold after 30 min incubation were also tested for biological activity.
Gamma glutamyl transferase, 2-1-18 porcine kidney was purchased from Calzyme Labs San Luis Obispo, Calif. 93401 USA, glyclglycine was obtained from Acros Organics, New Jersey, USA while L-glutamic acid 5-(4-nitroanilide) was purchased from Fluka Chemie Switzerland.
The reaction mixture was incubated in HOT BOX oven, size one incubator made by Gallenpark, England, while the absorbance was measured (@λmax 405 nm), using Anthos 2020 UV/VIS spectrophotometer.
Representative traces of pig vesicourethral junction sphincter muscle response to various enzyme reaction products are shown in FIG. 3 and representative traces of pig proximal sphincter muscle response to various enzyme reaction products are shown in FIG. 4. The enzyme reaction products tested are as follows: • FIG. 3a-50 mM Tris HCl buffer; • FIG. 3b-50 mM Tris HCl buffer, gamma glutamyl transferase. • FIG. 3c-50 mM Tris HCl buffer, MgCl2.6H2O, glycylglycine, compound of formula (Ia); • FIG. 4a-50 mM Tris HCl buffer, MgCl2.6H2O, glycylglycine, gamma glutamyl transferase, compound of formula (Ia); • FIG. 4b-0.3 mM 1R,2S-methoxamine.

mini pigs = settings: 1 mg/kg i.v., at maximum effect; cited from earlier work
[3] = Influence of intra-anally applied 1R,2S-methoxamine gel on micturition in subjects; type: in vivo; settings: experimental studies with appreciable systemic levels
Protocol: The study was conducted according to the following protocol:
• a) 1% by weight 1R,2S-methoxamine in 4% w/w gel • b) 3% by weight 1R,2S-methoxamine in 4% w/w gel • The 4% w/w gel comprises 4 g of hydroxypropylmethyl cellulose in 96 ml of 0.5M acetate buffer. 1% by weight 1R,2S-methoxamine in 4% w/w gel comprises 1 g of 1R,2S-methoxamine in 99 g of the 4% gel. Investigation
In a study for other purposes including 44 subjects, each subject had either the 3% methoxamine gel or the 1% methoxamine gel applied intra-anally. About 1 g of gel was used.

SMILES	biological activity retained relative to 1R,2S-methoxamine [1]	EC50 [1]	contractile response of muscle strip (representative traces) [1]	maximum response ([1]; observed at 10^−2M)	maximum response ([1]; at a concentration of 10^−3M)	less effective than Mg^2+-glycylglycine-compound of formula (Ia)-enzyme mixture [2]	contractile (bladder) response ([2]; no enzyme)	rise in diastolic pressure (mini pigs)	rise in systolic pressure (mini pigs)	unwanted systemic side effects [3]
COc1ccc(OC)c([C@@H](O)[C@H](C)NC(=O)[C@@H](N)CCC(=O)O)c1 [compound of formula (III), (S)-4-Amino-4-[(1S,2R)-2-(2,5-dimethoxyphenyl)-2-hydroxy-1-methyl-ethylcarbamoyl]butyric acid]	approximately 10%	495 µM	well defined contractile response	1.33 g	–	–	–	–	–	–
COc1ccc(OC)c([C@@H](O)[C@H](C)N)c1 [1R,2S-methoxamine, (1R,2S)-2-amino-1-(2,5-dimethoxyphenyl)propan-1-ol]	–	56.2 µM	pronounced well defined contractile response	–	1.12 g	29%	1.15 g	57%	23%	elevation of blood pressure

— US20080090916A1, “Compounds for Treating Urinary Incontinence” (priority 2005, published 2008)
